According to patent US11059845B2, “Immune stimulating macrolides” (ISR IMMUNE SYSTEM REGULATION HOLDING AB (PUBL), priority 2017, dated 2021):

Key:
PBMCs = assay: Supernatant IL-10 sandwich ELISA; format: cell-based, human; details: 100 U/mL IL-2, 48 h and 7 days
Method: Supernatant IL-10 was measured with a standard sandwich ELISA (all antibodies from BD Biosciences) after 48 hours and 7 days incubation with 2.5 μM of compound 1 and 100 U/mL IL-2 (Miltenyi Biotechnologies) in complete RPMI media, 37° C., 5% CO2
Supernatant IL-10 was measured with a standard sandwich ELISA (all antibodies from BD Biosciences) after 48 hours and 7 days incubation with 2.5 uM of compound 1 and 100 U/mL IL-2 (Miltenyi Biotechnologies) in complete RPMI media, 37° C., 5% CO2.

CD4+ T cells = assay: IL-1beta secretion from CD4+ T cells (cytometric bead assay); format: cell-based, human; details: 2 days
Method: (§1) FIG. 13: IL1b secretion (as measured by cytometric bead assay) from PBMC, macrophages or CD4 T cells stimulated with indicated compound for 48 h.
(§2) Study 12: PBMCs, macrophages and CD4+ T cells where exposed to compounds 1 and 2 for 2 days.

[1] = test system: E. coli, S. salivarius, L. casei, B. longum or M. luteus; assay: Direct antibacterial activity, summary over all strains tested; format: cell-based; details: against the bacterial strains tested (Table 1)
Method: The bioactivity of macrolide compounds against 4 strains of common gut bacteria (Escherichia coli, Streptococcus salivarius subsp. salivarius, Lactobacillus casei and Bifidobacterium longum subsp. infantis) and common mammalian skin isolate Micrococcus luteus, was assessed using the Minimum Inhibitory Concentration (MIC) assay. Bacterial strains were purchased from DSMZ (Brunswick, Germany) except M. luteus which was obtained from NCIMB, and stored in 20% glycerol at −80° C. Stock solutions (100% DMSO) of positive controls (azithromycin and erythromycin), and of test compounds 1 and 2 were diluted in broth to working stock concentrations of 256 μg/ml (final assay testing concentration range 128 μg/ml to 0.00391 μg/ml). Stock solutions of all other compounds were diluted in broth to working stock concentrations of 128 μg/ml (final assay testing concentration range 64 μg/ml to 0.00195 μg/ml). Bacterial strains were cultivated in appropriate broth in an anaerobic chamber at 37° C., except for M. luteus which was incubated aerobically at 37° C. 18 h cultures were diluted in broth to an OD595 of 0.1 and then further diluted 1:10. In 96-well plates, in duplicate, 200 μl working stock of test compound was transferred to well 1 and serially diluted (1:2) in broth. 100 μl bacterial suspension was aliquoted into each well and mixed thoroughly. Appropriate sterility controls were included and plates were incubated in an anaerobic chamber, or aerobically (M. luteus) at 37° C. for 18 h. The MIC was determined to be the concentration of test compound in the first well with no visible growth.

[2] = test system: CMV specific CD8+ T cells; assay: CMV cultures: phenotype of CMV specific CD8+ T cells; format: cell-based, human; details: PBMCs from CMV infected donors, CMV antigen, 6 days
Method: Human peripheral blood mononuclear cells (PBMCs) were purified from healthy CMV positive donors with Ficoll-Paque density centrifugation. The PBMC were labeled with 5 μM celltrace violet (Invitrogen) in PBS for 15 minutes and then washed with complete cell culture medium. The labeled PBMC was cultured in the presence of a peptide library spanning the CMV pp65 protein (1 μg peptide/ml, JPT) in AIM-V media (Invitrogen) supplemented with L-glutamine, Sodium pyruvate (Sigma), 10% fetal bovine serum, 100 μg/mL penicillin and 100 μg/mL streptomycin (Hyclone) for 6-8 days in 37° C., 5% CO2. Cell proliferation was assessed with flow cytomtery using a BD FACS Canto II flow cytometer.
Study 7: CMV virus specific T cell proliferation was also affected by compound 1. […] CD127 is crucial for T cell homeostasis, differentiation and function, and reduced expression correlates with disease severity in HIV and other chronic viral diseases (Crawley et al. 2012).

human TLR2 = molecular target: T1, human TLR2 (Homo sapiens, UniProt O60603); assay: TLR2 reporter assay (HEK-293-TLR, SEAP); format: cell-based
T1 construct: host or cells: recombinant HEK-293-TLR cell lines (hTLR2, NFkB-SEAP reporter)
T1 sequence (O60603 21-784): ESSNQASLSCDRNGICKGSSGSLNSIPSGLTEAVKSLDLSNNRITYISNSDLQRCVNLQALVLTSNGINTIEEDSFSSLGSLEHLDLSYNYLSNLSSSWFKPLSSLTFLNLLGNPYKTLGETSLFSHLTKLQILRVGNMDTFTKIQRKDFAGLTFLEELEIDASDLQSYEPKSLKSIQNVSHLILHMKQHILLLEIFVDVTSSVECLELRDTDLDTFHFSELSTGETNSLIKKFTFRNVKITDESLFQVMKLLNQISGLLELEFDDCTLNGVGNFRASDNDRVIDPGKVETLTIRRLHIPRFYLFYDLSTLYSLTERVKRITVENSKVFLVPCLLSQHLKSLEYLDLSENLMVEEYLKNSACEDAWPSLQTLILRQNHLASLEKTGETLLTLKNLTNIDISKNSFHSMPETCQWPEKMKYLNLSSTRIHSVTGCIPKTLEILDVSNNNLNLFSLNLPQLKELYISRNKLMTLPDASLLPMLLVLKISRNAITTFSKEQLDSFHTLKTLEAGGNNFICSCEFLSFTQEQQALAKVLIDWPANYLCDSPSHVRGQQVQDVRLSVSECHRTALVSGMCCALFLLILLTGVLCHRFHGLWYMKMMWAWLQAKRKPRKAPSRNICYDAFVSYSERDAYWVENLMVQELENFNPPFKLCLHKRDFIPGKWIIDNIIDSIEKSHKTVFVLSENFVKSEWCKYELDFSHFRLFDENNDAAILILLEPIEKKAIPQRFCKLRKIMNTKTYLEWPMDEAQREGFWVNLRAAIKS
Method: Samples and controls were tested in duplicate on recombinant HEK-293-TLR cell lines using a cell reporter assay at Invivogen using their standard assay conditions. These cell lines functionally over-express human TLR2 protein as well as a reporter gene which is a secreted alkaline phosphatase (SEAP). The production of this reporter gene is driven by an NFkB inducible promoter. The TLR reporter cell lines activation results are given as optical density values (OD). 20 μl of each test article were used to stimulate the hTLR2 reporter cell lines in a 200 μl of final reaction volume. Samples were tested in duplicate, with at least two concentrations tested—20 uM and 10 uM.
Compounds were tested using a TLR2 reporter assay (see general methods) that measured for stimulation of the TLR2 receptor. Stimulatory effect was measured as an increase in optical density (OD) due to release of secreted alkaline phosphatase (SEAP) and is shown in table 4: […]

[3] = test system: Macrophages from healthy donors; assay: Cytokine/chemokine secretion from macrophages (cytometric bead assay); format: cell-based, human
Method: FIG. 10: Interferon-gamma secretion (as measured by cytometric bead assay) from macrophages stimulated with indicated compound for 48 h.
FIG. 11: Chemokine RANTES secretion (as measured by cytometric bead assay) from PBMC or macrophages stimulated with indicated compound for 48 h.
FIG. 12: IL12p70 secretion (as measured by cytometric bead assay) from PBMC or macrophages stimulated with indicated compound for 48 h.
as §1
Study 9: Macrophages from healthy donors where exposed to compounds 1 or 2 for 48 hours. […] Compound 1 is therefore able to induce IFN-gamma secretion in macrophages from healthy donors.
Study 10: PBMCs and macrophages where exposed to compounds 1 or 2 for 2 days (FIG. 11).
Study 11: PBMCs and macrophages where exposed to compounds 1 and 2 for 2 days.
as §2

## CC[C@H]1OC(=O)[C@H](C)[C@@H](O[C@H]2C[C@@H](N(C)C)[C@H](O)[C@@H](C)O2)[C@H](C)[C@@H](O)[C@](C)(O)C[C@@H](C)CN(C)[C@H](C)[C@@H](O)[C@]1(C)O [Compound 1]
PBMCs
  production of IL-10: increased production
CD4+ T cells
  IL-1beta secretion, CD4+ T cells: no IL-1beta was induced
[1]
  antibacterial activity: no antibacterial activity
[2]
  expression of IL-7 receptor α (CD127) on activated CMV specific CD8+ T cells: increased expression
Human TLR2; 5 μM, SEAP reporter optical density
  OD after addition of 5 μM test article: 0.111
Human TLR2; 10 μM, SEAP reporter optical density
  OD after addition of 10 μM test article: 0.202
Human TLR2; 20 μM, SEAP reporter optical density
  OD after addition of 20 μM test article: 0.458
Human TLR2; lowest stimulating concentration tested
  concentrations at which TLR2 was stimulated (down to): ≥ 5 µM
[3]; 2 days
  IL-1beta secretion, macrophages: increased
  IL-12p70 secretion, macrophages: secreted IL-12p70
  expression of RANTES in macrophages: induced a high expression
[3]; 48 hours
  IFN-gamma secretion, macrophages: secreted IFN-gamma
